Experimental data as given in patent US9493501B2, “Methyltransferase inhibitors for treating cancer” (MEMORIAL SLOAN-KETTERING CANCER CENTER, priority 2011, dated 2016).

How the values were obtained:
[1] = molecular target: T1, G9a (913-1913) (Homo sapiens, UniProt Q96KQ7); experiment: Filter-paper methylation assay, G9a; type: biochemical; details: 20 nM enzyme, H3 (1-21 aa) peptide, 1 h
T1 construct: G9a (913-1913)

[2] = molecular target: T2, GLP1 (951-1235) (Homo sapiens, UniProt Q9H9B1); experiment: biochemical; details: 10 nM enzyme, H3 (1-21 aa) peptide, 1 h
T2 sequence (Q9H9B1 982-1266 limits assumed): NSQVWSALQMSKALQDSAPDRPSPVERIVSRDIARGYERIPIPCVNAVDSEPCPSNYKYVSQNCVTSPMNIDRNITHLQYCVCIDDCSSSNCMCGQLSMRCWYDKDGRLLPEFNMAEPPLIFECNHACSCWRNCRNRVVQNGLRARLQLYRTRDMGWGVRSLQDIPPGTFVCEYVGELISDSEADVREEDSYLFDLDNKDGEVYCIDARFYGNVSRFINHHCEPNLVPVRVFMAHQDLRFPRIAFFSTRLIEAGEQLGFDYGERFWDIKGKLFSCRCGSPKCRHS

[3] = molecular target: T3, SET7/9 Full-length (Homo sapiens, UniProt Q8WTS6); experiment: Filter-paper methylation assay, SET7/9; type: biochemical; details: 150 nM enzyme, H3 (1-21 aa) peptide, 3 h
T3 construct: SET7/9 Full-length
T3 sequence (Q8WTS6 1-366): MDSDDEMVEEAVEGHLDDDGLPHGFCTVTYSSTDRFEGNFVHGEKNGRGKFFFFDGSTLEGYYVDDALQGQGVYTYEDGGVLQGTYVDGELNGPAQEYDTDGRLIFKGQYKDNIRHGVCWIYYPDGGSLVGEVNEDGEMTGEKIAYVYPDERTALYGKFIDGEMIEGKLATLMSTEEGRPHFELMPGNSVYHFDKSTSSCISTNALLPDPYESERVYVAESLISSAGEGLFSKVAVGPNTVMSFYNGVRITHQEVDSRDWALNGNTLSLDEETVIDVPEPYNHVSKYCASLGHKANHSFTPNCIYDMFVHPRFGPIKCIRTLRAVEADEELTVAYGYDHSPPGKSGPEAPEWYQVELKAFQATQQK

[4] = molecular target: T4, SET8 (191-352) (Homo sapiens, UniProt Q9NQR1); experiment: Filter-paper methylation assay, SET8; type: biochemical; details: 1000 nM enzyme, H4 (10-30 aa) peptide, 8 h
T4 construct: SET8 (191-352)
T4 sequence (Q9NQR1 191-352 isoform Q9NQR1-2): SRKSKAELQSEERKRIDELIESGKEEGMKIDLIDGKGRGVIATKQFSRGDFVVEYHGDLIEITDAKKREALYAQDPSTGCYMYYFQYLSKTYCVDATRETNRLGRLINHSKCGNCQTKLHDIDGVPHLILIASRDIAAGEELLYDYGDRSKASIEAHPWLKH

[5] = molecular target: T5, SETD2 (1347-1711) (Homo sapiens, UniProt Q9BYW2); experiment: Filter-paper methylation assay, SETD2; type: biochemical; details: 250 nM enzyme, H3 (20-50 aa) peptide, 4 h
T5 construct: SETD2 (1347-1711)
T5 sequence (Q9BYW2 1347-1711): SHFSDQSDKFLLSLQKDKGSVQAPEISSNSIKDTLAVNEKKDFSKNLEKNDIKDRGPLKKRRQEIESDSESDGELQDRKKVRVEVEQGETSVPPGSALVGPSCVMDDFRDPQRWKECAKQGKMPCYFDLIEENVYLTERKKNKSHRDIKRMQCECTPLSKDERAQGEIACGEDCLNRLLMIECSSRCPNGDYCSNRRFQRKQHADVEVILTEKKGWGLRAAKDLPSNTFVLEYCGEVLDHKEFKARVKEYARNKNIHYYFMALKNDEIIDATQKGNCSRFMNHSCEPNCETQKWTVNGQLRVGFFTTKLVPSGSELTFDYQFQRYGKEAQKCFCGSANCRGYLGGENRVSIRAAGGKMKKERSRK

[6] = molecular target: T6, PRMT1 (10-352) (Homo sapiens, UniProt Q99873); experiment: Filter-paper methylation assay, PRMT1; type: biochemical; details: 100 nM enzyme, RGG peptide, 1.5 h
T6 construct: PRMT1 (10-352)
T6 sequence (Q99873 10-352 isoform Q99873-3, species assumed): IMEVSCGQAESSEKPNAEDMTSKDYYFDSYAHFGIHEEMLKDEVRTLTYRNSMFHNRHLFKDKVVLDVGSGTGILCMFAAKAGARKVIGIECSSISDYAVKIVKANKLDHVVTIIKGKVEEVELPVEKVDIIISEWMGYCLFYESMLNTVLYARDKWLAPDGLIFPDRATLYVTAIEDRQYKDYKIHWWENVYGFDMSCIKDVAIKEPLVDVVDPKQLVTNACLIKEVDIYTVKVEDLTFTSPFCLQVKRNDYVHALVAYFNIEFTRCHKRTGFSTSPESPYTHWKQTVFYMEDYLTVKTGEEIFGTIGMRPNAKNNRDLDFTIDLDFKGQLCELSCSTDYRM

[7] = molecular target: T7, PRMT3 (211-531) (Homo sapiens, UniProt O60678); experiment: Filter-paper methylation assay, PRMT3; type: biochemical; details: 100 nM enzyme, RGG peptide, 3 h
T7 construct: PRMT3 (211-531)
T7 sequence (O60678 211-531): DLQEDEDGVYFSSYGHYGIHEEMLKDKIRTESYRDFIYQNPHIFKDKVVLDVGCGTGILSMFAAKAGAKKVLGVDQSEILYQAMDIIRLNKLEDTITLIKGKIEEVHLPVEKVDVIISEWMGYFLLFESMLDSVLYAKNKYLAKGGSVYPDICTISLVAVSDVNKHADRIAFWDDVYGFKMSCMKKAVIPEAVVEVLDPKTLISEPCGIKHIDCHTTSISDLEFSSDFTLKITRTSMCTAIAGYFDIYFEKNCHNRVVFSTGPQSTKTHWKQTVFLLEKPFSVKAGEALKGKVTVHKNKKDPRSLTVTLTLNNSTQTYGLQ

[8] = molecular target: T8, SUV39H2 (112-410) (Homo sapiens, UniProt Q9H5I1); experiment: Filter-paper methylation assay, SUV39H2; type: biochemical; details: 5 nM enzyme, H3 (1-21 aa) peptide, 4 h
T8 construct: SUV39H2 (112-410)
T8 sequence (Q9H5I1 112-410): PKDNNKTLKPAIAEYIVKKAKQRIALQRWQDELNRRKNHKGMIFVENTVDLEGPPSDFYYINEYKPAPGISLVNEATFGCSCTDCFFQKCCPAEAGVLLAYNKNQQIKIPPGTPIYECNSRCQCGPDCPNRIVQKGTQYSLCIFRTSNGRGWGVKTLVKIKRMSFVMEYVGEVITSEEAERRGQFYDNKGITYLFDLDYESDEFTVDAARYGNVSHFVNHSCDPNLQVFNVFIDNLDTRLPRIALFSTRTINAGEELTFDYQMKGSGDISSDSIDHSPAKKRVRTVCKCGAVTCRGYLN

[9] = molecular target: T9, CARM1 (19-608) (Homo sapiens, UniProt Q86X55); experiment: Filter-paper methylation assay, CARM1; type: biochemical; details: 300 nM enzyme, H3 (1-40 aa) peptide, 7 h; read-out: IC50 CARM1
T9 construct: CARM1 (19-608)
T9 sequence (Q86X55 19-608): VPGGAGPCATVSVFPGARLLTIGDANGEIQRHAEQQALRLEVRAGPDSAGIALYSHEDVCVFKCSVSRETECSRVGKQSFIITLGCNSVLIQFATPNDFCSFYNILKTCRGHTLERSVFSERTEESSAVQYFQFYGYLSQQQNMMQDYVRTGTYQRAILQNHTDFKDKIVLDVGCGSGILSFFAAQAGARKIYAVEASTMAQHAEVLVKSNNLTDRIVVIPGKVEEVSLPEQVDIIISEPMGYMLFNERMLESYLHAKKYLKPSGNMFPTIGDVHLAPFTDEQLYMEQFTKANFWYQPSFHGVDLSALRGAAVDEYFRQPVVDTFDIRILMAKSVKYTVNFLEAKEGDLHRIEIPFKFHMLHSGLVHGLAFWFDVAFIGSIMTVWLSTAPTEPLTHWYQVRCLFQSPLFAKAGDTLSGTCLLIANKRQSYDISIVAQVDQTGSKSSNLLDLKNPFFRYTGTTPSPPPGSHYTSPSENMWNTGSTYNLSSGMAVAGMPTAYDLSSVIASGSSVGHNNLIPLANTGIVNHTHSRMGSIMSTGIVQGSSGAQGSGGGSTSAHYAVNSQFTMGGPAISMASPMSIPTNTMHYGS

[10] = molecular target: T10, SMYD2 Full-length (Homo sapiens, UniProt Q9NRG4); experiment: Filter-paper methylation assay, SMYD2; type: biochemical; details: 50 nM enzyme, p53 (360-393 aa) peptide, 10 h; read-out: IC50 SMYD2-FL
T10 construct: SMYD2 Full-length
T10 sequence (Q9NRG4 whole entry, the tested form may be a part): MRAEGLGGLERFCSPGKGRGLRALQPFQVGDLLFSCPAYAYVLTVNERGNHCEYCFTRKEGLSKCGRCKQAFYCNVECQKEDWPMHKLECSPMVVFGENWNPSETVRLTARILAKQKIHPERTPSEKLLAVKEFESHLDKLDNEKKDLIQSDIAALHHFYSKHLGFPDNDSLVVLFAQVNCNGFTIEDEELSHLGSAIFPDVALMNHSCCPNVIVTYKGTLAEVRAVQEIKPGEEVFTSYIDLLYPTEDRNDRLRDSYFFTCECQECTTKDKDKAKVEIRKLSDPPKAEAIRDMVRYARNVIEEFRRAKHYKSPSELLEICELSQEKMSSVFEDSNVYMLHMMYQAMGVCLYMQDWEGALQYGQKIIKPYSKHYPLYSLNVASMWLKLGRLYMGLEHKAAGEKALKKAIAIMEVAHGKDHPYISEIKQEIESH

[11] = system: histone 3 lysine 36 tri-methyl; experiment: Cellular assay, histone methylation in HEK-293T cells; type: cell-based; details: "in vivo", up to 100 μM, 24 h, H3K36 tri-methyl blot

T1 sequence (Q96KQ7 913-1193): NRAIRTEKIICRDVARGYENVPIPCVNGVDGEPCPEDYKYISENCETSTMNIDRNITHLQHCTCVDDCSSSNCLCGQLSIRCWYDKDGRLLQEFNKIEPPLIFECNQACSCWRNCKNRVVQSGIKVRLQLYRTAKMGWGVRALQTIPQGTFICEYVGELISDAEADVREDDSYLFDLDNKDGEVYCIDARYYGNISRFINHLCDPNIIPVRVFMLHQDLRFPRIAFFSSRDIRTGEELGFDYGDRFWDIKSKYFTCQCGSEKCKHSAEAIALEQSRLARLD

For `CCCN[C@@H](CC[C@H](N)C(=O)O)C[C@H]1O[C@@H](n2cnc3c(N)ncnc32)[C@H](O)[C@@H]1O` [Compound 102], the IC50 [1] was > 100 µM, the IC50 [2] was > 100 µM and the IC50 [3] was 2.2 µM. The IC50 [4] was > 100 µM, the IC50 [5] was 0.8 µM and the IC50 [6] was 9.5 µM. It also gave an IC50 [7] of ~100 µM, an IC50 [8] of 9.8 µM and an IC50 [9] of 3 µM. For the same molecule, the IC50 [10] was 0.5 µM and the inhibiting histone methyltransferase [11] was “showed activity in inhibiting histone methyltransferase”.
